In patent US9187486B2 (AMGEN INC., priority 2011, dated 2015):
Read-outs that look alike come from different tables or passages of the source.

Tests used:
Pim-1 = Pim-1 (Homo sapiens (Human), UniProt P11309); experiment: Pim enzyme assay (HTRF, phosphorylation of biotinylated-BAD (S112) peptide), Pim-1; assay type: biochemical; settings: full length recombinant Pim-1, biotinylated-BAD (S112) peptide, HTRF
From the text: (§1) Full-length human cDNAs encoding Pim-1 (MGC ID 3913552) or Pim-2 (IMAGE ID 5092935) were purchased from Invitrogen, Carlsbad, Calif. These cDNAs were used as templates in PCR reactions to produce full-length DNA clones of the PIMs. Oligonucleotide PCR primers for Pim-1 were 5′-[…]-3′ and 5′-[…]-3′. Oligonucleotide PCR primers for Pim-2 were 5′-[…]-3′ and 5′-[…]-3′. PCR products were digested with BclI and EcoRI for Pim-1 and BamHI and EcoRI for Pim-2 and ligated into a modified baculovirus transfer vector (pFastBac 1) cleaved with BamHI and EcoRI. For bacterial expression, the same cleaved PCR products encoding Pim-1 or Pim-2 were ligated into a modified E. coli expression vector pET28(a) cleaved with BamHI and EcoRI. Amino-terminal hexahistidine tags followed by a thrombin cleavage site were previously added to the vectors using standard methods of molecular biology. Recombinant baculoviruses expressing Pim-1 or Pim-2 were made using standard methods (Fastbac manual, Invitrogen, Carlsbad, Calif.). Infection of Sf9 cells was done at an m.o.i. of greater than 5 for 24-48 h. Cells were harvested by centrifugation and frozen at −80 C. For E. coli expression, cells carrying pET28-His6-Th-Pim-1 or pET28-His6-Th-Pim-2 were picked from a single colony and grown o/n in LB media. The o/n culture was used to inoculate a 2 liter flask with 500 mL media. This was grown o/n and used to inoculate 15-20 liters of Terrific Broth in a New Brunswick Scientific fermentor. The E. coli were grown at 37° C. to and OD600>1.6. The temperature was dropped to 18° C. and o/n expression was induced with 0.5 mM IPTG. Cells were harvested by centrifugation and frozen at −80° C.
(§2) The frozen cell pellets were thawed by stirring in chilled lysis buffer (0.05 M HEPES, pH 8.0, 0.25 M NaCl, 0.01 M 2-mercaptoethanol, 10% (w/v) glycerol, 0.5% (v/v) protease inhibitor cocktail (Sigma P-8340) at a ratio of 1 L/200 g cells until homogeneous. The thawed suspension was applied to a microfluidizer at 10,000 PSI to disrupt the cells and the whole lysates were clarified by centrifugation at 50,000×g for 90 min, 4° C. Imidazole was added to the clarified lysate to a final concentration of 2.5 mM and the lysate was mixed with 10 mL of Talon resin (Clontech) and the slurry rocked gently overnight at 4° C. The slurry was centrifuged at 1,000×g for 5 min, the supernatant decanted, and the resin suspended in 40 mL of lysis wash buffer (lysis buffer at 0.75 M NaCl). This step was repeated 3× and the resin was transferred to a 2.5 cm glass column. Ten column volumes of wash buffer (0.05 M HEPES, pH 8.0, 0.1 M NaCl, 0.01 M 2-mercaptoethanol, 10% (w/v) glycerol) were applied to the resin followed by 10 column volumes of elution buffer (0.05 M HEPES, pH 8.0, 0.25 M NaCl, 0.01 M 2-mercaptoethanol, 10% (w/v) glycerol, 0.1 M imidazole). Fractions were analyzed by SDS-PAGE and those containing the protein of interest were pooled and concentrated. The concentrated protein was applied to an Amersham Superdex 75 (XK 26/60) column equilibrated in 0.025 M Tris-HCl, pH 7.5, 0.1 M NaCl, 0.01 M 2-mercaptoethanol, 10% (w/v) glycerol. […] Fractions containing the monomeric protein of interest were pooled, concentrated to ˜2 mg/mL, and stored at −80° C.
(§3) The phosphorylation of biotinylated-BAD (S112) peptide by full length recombinant Pim-1, Pim-2, or Pim-3 protein was detected with streptavidin:Allophycocyanin (APC) conjugate and a europium (Eu) labeled antibody directed against phosphorylated-BAD (S112). Excitation of Eu by a high energy laser light (337 nm) leads to a transfer of energy to the APC molecule, and results in an emission at 665 nm. The fluorescence is directly proportional to the amount of phosphorylated BAD peptide present in the reaction.

Pim-2 = Pim-2 (Homo sapiens (Human), UniProt Q9P1W9); experiment: Pim enzyme assay (HTRF, phosphorylation of biotinylated-BAD (S112) peptide), Pim-2; assay type: biochemical
Pim-2, sequence (Q9P1W9 whole entry): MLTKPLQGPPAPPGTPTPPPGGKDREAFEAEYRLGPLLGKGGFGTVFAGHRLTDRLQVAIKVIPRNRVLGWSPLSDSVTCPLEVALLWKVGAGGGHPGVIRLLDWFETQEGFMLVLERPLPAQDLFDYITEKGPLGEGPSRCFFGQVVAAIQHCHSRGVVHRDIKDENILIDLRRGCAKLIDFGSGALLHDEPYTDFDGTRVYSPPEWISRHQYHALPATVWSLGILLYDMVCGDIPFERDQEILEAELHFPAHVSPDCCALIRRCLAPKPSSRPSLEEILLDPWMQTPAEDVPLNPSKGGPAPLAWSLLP
From the text: as §1, §2, §3

[1] = 96-well, read-out: Pim-1 IC50 IP
[2] = full length recombinant Pim-2, biotinylated-BAD (S112) peptide, HTRF, 96-well, read-out: Pim-2 IC50 IP
[3] = full length recombinant Pim-2, biotinylated-BAD (S112) peptide, HTRF, read-out: Pim2_IC50

Pim-1, sequence (P11309 whole entry): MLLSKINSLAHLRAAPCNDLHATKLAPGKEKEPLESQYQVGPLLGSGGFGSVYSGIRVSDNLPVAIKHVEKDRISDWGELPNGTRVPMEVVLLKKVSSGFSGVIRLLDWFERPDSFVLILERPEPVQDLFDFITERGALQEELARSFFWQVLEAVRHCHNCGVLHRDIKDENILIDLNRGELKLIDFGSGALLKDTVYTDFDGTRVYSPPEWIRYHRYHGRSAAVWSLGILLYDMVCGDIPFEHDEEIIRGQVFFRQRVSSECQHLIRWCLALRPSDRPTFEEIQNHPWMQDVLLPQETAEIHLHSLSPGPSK

| SMILES | IC50 (Pim-1; [1]) [nM] | IC50 (Pim-2; [2]) [nM] | IC50 (Pim-1; read-out: Pim_1_IC50) [nM] | IC50 (Pim-2; [3]) [nM] | further results |
| --- | --- | --- | --- | --- | --- |
| N[C@H]1CCCN(c2ncncc2Nc2ncc3ccc(-c4ccccc4F)nn23)C1 [Example 14, (S)-N-(4-(3-aminopiperidin-1-yl)pyrimidin-5-yl)-2-(2-fluorophenyl)imidazo[1,5-b]pyridazin-7-amine] | – | – | 35 | 160 | – |
| c1cc(N2CCNCC2)c(Nc2ncc3ccc(-c4nccs4)nn23)cn1 [Example 3, N-(4-(1-piperazinyl)-3-pyridinyl)-2-(1,3-thiazol-2-yl)imidazo[1,5-b]pyridazin-7-amine] | – | – | 54 | 154 | – |
| O=c1ccc(-c2ccncc2Nc2ncc3ccc(-c4c(F)cccc4F)nn23)c[nH]1 [Example 28, 3′-((2-(2,6-difluorophenyl)imidazo[1,5-b]pyridazin-7-yl)amino)-3,4′-bipyridin-6(1 H)-one] | – | – | 38 | 281 | – |
| N[C@@H]1CCCN(c2ccncc2Nc2ncc3ccc(-c4c(F)cccc4F)nn23)C1 [Example 69, (R)-N-(4-(3-aminopiperidin-1-yl)pyridin-3-yl)-2-(2,6-difluorophenyl)imidazo[1,5-b]pyridazin-7-amine] | 7.6 | 35.2 | – | – | – |
| Cc1oncc1-c1ccncc1Nc1ncc2ccc(-c3c(F)cccc3F)nn12 [Example 102, 2-(2,6-Difluorophenyl)-N-(4-(5-methylisoxazol-4-yl)pyridin-3-yl)imidazo[1,5-b]pyridazin-7-amine bis(2,2,2-trifluoroacetate)] | – | – | – | – | IC50 (Pim-2; read-out: Pim-2 IC50 IP): > 1000 nM |
| N[C@H]1CCCN(c2ccncc2Nc2ncc3ccc(Cl)nn23)C1 [Example 24, N-(4-((3S)-3-amino-1-piperidinyl)-3-pyridinyl)-2-chloroimidazo[1,5-b]pyridazin-7-amine] | – | – | 25 | 99 | – |
| Clc1ccccc1-c1ccc2cnc(Nc3cnccc3N3CCNCC3)n2n1 [Example 5, 2-(2-chlorophenyl)-N-(4-(1-piperazinyl)-3-pyridinyl)imidazo[1,5-b]pyridazin-7-amine] | – | – | 107 | 640 | – |
| O[C@@H]1CCCN(c2ccncc2Nc2ncc3ccc(-c4nccs4)nn23)C1 [Example 18, (3R)-1-(3-((2-(1,3-thiazol-2-yl)imidazo[1,5-b]pyridazin-7-yl)amino)-4-pyridinyl)-3-piperidinol] | – | – | 99 | > 1000 | – |
| O[C@@H]1CCCN(c2ccncc2Nc2ncc3ccc(-c4ccccc4Cl)nn23)C1 [Example 17, (3R)-1-(3-((2-(2-chlorophenyl)imidazo[1,5-b]pyridazin-7-yl)amino)-4-pyridinyl)-3-piperidinol] | – | – | 192 | > 1000 | – |
| N[C@H]1CCN(c2ccncc2Nc2ncc3ccc(-c4c(F)cccc4F)nn23)C1 [Example 13, N-(4-((3S)-3-amino-1-pyrrolidinyl)-3-pyridinyl)-2-(2,6-difluorophenyl)imidazo[1,5-b]pyridazin-7-amine bis(2,2,2-trifluoroacetate)] | – | – | 568 | > 1000 | – |

Now from value to compound, other results behind:

| IC50 (Pim-1; [1]) [nM] | IC50 (Pim-2; [2]) [nM] | IC50 (Pim-1; read-out: Pim_1_IC50) [nM] | IC50 (Pim-2; [3]) [nM] | SMILES | further results |
| --- | --- | --- | --- | --- | --- |
| > 1000 | > 1000 | – | – | N[C@H]1CCCN(c2cnccc2Nc2ncc3ccc(-c4c(F)cccc4F)nn23)C1 [Example 80, (S)-N-(3-(3-aminopiperidin-1-yl)pyridin-4-yl)-2-(2,6-difluorophenyl)imidazo[1,5-b]pyridazin-7-amine tetra(2,2,2-trifluoroacetate)] | – |
| 38.5 | – | – | – | Fc1cccnc1-c1ccc2cnc(Nc3cnccc3N3CCCCC3)n2n1 [Example 71, 2-(3-Fluoropyridin-2-yl)-N-(4-(piperidin-1-yl)pyridin-3-yl)imidazo[1,5-b]pyridazin-7-amine bis(2,2,2-trifluoroacetate)] | – |
| 66.9 | – | – | – | O[C@@H]1CCN(c2ccncc2Nc2ncc3ccc(-c4c(F)cccc4F)nn23)C[C@H]1O (single isomer, unassigned) [Example 34, 1-(3-((2-(2,6-difluorophenyl)imidazo[1,5-b]pyridazin-7-yl)amino)-4-pyridinyl)-3,4-trans-piperidinediol] | – |
| – | – | 206 | > 1000 | Nc1cncc(-c2ccncc2Nc2ncc3ccc(-c4c(F)cccc4F)nn23)c1 [Example 29, N3′-(2-(2,6-difluorophenyl)imidazo[1,5-b]pyridazin-7-yl)-3,4′-bipyridine-3′,5-diamine] | – |
| 30.5 | – | – | – | N[C@@H]1C=C(c2ccncc2Nc2ncc3ccc(-c4c(F)cccc4F)nn23)CCC1 (single isomer, unassigned) [Example 84, N-(4-(3-aminocyclohex-1-en-1-yl)pyridin-3-yl)-2-(2,6-difluorophenyl)imidazo[1,5-b]pyridazin-7-amine tris(2,2,2-trifluoroacetate)] | – |
| – | 1.1 | – | – | N[C@H]1CCCN(c2ccncc2Nc2ncc3ccc(-c4ncccc4F)nn23)C1 [Example 40, N-(4-((3S)-3-amino-1-piperidinyl)-3-pyridinyl)-2-(3-fluoro-2-pyridinyl)imidazo [1,5-b]pyridazin-7-amine] | – |
| 33.8 | – | – | – | CC(C)CN(C)c1ccncc1Nc1ncc2ccc(-c3c(F)cccc3F)nn12 [Example 81, N3-(2-(2,6-Difluorophenyl)imidazo[1,5-b]pyridazin-7-yl)-N4-isobutyl-N4-methylpyridine-3,4-diamine] | – |
| 2 | 31 | – | – | CN[C@H]1CCCN(c2ccncc2Nc2ncc3ccc(-c4c(F)cccc4F)nn23)C1 [Example 59, (S)-2-(2,6-difluorophenyl)-N-(4-(3-(methylamino)piperidin-1-yl)pyridin-3-yl)imidazo[1,5-b]pyridazin-7-amine] | – |
| 29.6 | – | – | – | Fc1cccc(F)c1-c1ccc2cnc(Nc3cnccc3N3CCCCC3)n2n1 [Example 70, 2-(2,6-difluorophenyl)-N-(4-(piperidin-1-yl)pyridin-3-yl)imidazo[1,5-b]pyridazin-7-amine bis(2,2,2-trifluoroacetate)] | – |
| 150 | > 1000 | – | – | COC(C)CN(C)c1ccncc1Nc1ncc2ccc(-c3c(F)cccc3F)nn12 (stereo not drawn) [Example 77, N3-(2-(2,6-difluorophenyl)imidazo[1,5-b]pyridazin-7-yl)-N4-(2-methoxypropyl)-N4-methylpyridine-3,4-diamine] | – |
| 38.3 | 73.7 | – | – | N[C@H]1CCCN(c2ccncc2Nc2nnc3cccnn23)C1 [Example 68, 2,2,2-trifluoroacetate] | – |
| 11.8 | 65.9 | – | – | C[C@H]1CN(c2ccncc2Nc2ncc3ccc(-c4c(F)cccc4F)nn23)CCN1 [Example 58, (S)-2-(2,6-difluorophenyl)-N-(4-(3-methylpiperazin-1-yl)pyridin-3-yl)imidazo[1,5-b]pyridazin-7-amine bis(2,2,2-trifluoroacetate)] | – |
| 4.5 | 35.4 | – | – | N[C@H]1CCCN(c2ccncc2Nc2nnc3ccc(-c4c(F)cccc4F)nn23)C1 [Example 67, (S)-N-(4-(3-aminopiperidin-1-yl)pyridin-3-yl)-6-(2,6-difluorophenyl)-[1,2,4]triazolo[4,3-b]pyridazin-3-amine 2,2,2-trifluoroacetate] | – |
